The numbers were not newly measured in patent EP4620459A1, “METFORMIN HYDROCHLORIDE ENTERIC-COATED TABLET” (Yayan (Tianjin) Biomedical Technology Center (Limited …, priority 2023, dated 2025), which cites them from elsewhere.

For this data set the following is noted: nausea, abdominal pain, abdominal discomfort, etc.

For the compound `CN(C)C(=N)N=C(N)N` [metformin], the “incidence of gastrointestinal adverse reactions” value is reported as 20-30%.
